Earlier results, collected in US11389520B2, “Modified tetra-acylated neisserial LPS” (priority 2016, dated 2022).

Target: human TLR4/MD-2 complex (Homo sapiens, UniProt O00206+Q9Y6Y9)
Sequence (O00206 24-839): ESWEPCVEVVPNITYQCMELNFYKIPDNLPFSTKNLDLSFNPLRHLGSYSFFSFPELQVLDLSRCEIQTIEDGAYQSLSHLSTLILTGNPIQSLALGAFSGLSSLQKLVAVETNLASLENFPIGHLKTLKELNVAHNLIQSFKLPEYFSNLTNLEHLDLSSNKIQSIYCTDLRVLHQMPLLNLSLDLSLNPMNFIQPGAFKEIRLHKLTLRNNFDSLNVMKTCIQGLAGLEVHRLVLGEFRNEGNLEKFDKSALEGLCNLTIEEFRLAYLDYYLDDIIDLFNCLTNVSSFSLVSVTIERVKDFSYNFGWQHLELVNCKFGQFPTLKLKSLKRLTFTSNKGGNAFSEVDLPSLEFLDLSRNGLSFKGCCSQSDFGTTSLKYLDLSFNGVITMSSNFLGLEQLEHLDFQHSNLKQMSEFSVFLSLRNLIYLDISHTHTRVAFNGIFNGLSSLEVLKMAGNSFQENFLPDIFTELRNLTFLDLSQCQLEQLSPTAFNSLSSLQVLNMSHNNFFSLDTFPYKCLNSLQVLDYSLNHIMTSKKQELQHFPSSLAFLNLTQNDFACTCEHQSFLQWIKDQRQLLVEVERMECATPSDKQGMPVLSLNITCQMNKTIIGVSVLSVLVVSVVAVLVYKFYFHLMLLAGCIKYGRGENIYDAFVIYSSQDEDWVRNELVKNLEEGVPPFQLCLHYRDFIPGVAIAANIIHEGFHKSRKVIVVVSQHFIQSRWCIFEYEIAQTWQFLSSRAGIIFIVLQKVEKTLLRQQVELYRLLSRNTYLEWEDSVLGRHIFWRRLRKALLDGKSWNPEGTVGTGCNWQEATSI
Sequence (Q9Y6Y9 17-160 limits assumed): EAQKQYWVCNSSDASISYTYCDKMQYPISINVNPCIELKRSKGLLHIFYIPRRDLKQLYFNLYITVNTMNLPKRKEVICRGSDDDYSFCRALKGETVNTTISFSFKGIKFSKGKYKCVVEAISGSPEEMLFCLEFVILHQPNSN

CCCCCCCCCCC[C@@H](O)CC(=O)N[C@H]1[C@H](OC[C@H]2O[C@H](OP(=O)(O)O)[C@H](NC(=O)C[C@H](O)CCCCCCCCCCC)[C@@H](OC(=O)C[C@H](O)CCCCCCCCCCC)[C@@H]2O)O[C@H](CO)[C@@H](OP(=O)(O)O)[C@@H]1OC(=O)C[C@H](O)CCCCCCCCCCC [lipid IVa]
Action on the human TLR4/MD-2 complex: antagonist
